# Assay results from ChEMBL document CHEMBL1132706 (J Med Chem, 1999).
# Key:
# CEM-SS [1] = experiment: Compound was evaluated for the cytoprotection of CEM-SS cells by XTT cytoprotection assay through the NCI AIDS Screen (EC50); assay type: functional, cell-based; details: Homo sapiens
# CEM-SS [2] = experiment: Compound was evaluated for the cytoprotection of CEM-SS cells by XTT cytoprotection assay through the NCI AIDS Screen (IC50); assay type: functional, cell-based; details: Homo sapiens
# [3] = target: T1, Human immunodeficiency virus type 1 integrase (Human immunodeficiency virus 1, UniProt Q7ZJM1)
# Description: Inhibition of HIV-1 integrase by radiolabeled oligonucleotide-based assay integration
# [4] = target: T1, Human immunodeficiency virus type 1 integrase; remark: listed apart in the source
# Description: Compound was evaluated for the inhibitory concentration against HIV-1 integrase by radiolabeled oligonucleotide-based assay 3''-processing
# CEM-SS [5] = experiment: Compound was evaluated for the effect of Order of Addition on Cytoprotection against HIV-1RF at dilution 100, Pretreat only (100 uM); assay type: functional, Homo sapiens
# CEM-SS [6] = experiment: Compound was evaluated for the effect of Order of Addition on Cytoprotection against HIV-1RF at dilution 1000, Pretreat only (100 uM); assay type: functional, Homo sapiens
# CEM-SS [7] = experiment: Compound was evaluated for the effect of Order of Addition on Cytoprotection against HIV-1RF at dilution 333, Pretreat only (100 uM); assay type: functional, Homo sapiens
# CEM-SS [8] = experiment: Compound was evaluated for the effect of Order of Addition on Cytoprotection against HIV1-RF at dilution 100, Add at infection; assay type: functional, Homo sapiens
# CEM-SS [9] = experiment: Compound was evaluated for the effect of Order of Addition on Cytoprotection against HIV1-RF at dilution 100, Pretreat and add 1 uM; assay type: functional, Homo sapiens
# CEM-SS [10] = experiment: Compound was evaluated for the effect of Order of Addition on Cytoprotection against HIV1-RF at dilution 100, Pretreat and add 10 uM; assay type: functional, Homo sapiens
# CEM-SS [11] = experiment: Compound was evaluated for the effect of Order of Addition on Cytoprotection against HIV1-RF at dilution 100, Pretreat with 100 uM; assay type: functional, Homo sapiens
# CEM-SS [12] = experiment: Compound was evaluated for the effect of Order of Addition on Cytoprotection against HIV1-RF at dilution 1000, Add at infection; assay type: functional, Homo sapiens
# CEM-SS [13] = experiment: Compound was evaluated for the effect of Order of Addition on Cytoprotection against HIV1-RF at dilution 1000, Pretreat and add 1 uM; assay type: functional, Homo sapiens
# CEM-SS [14] = experiment: Compound was evaluated for the effect of Order of Addition on Cytoprotection against HIV1-RF at dilution 1000, Pretreat and add 10 uM; assay type: functional, Homo sapiens
# CEM-SS [15] = experiment: Compound was evaluated for the effect of Order of Addition on Cytoprotection against HIV1-RF at dilution 1000, Pretreat with 100 uM; assay type: functional, Homo sapiens
# CEM-SS [16] = experiment: Compound was evaluated for the effect of Order of Addition on Cytoprotection against HIV1-RF at dilution 333, Add at infection; assay type: functional, Homo sapiens
# CEM-SS [17] = experiment: Compound was evaluated for the effect of Order of Addition on Cytoprotection against HIV1-RF at dilution 333, Pretreat and add 10 uM; assay type: functional, Homo sapiens
# CEM-SS [18] = experiment: Compound was evaluated for the effect of Order of Addition on Cytoprotection against HIV1-RF at dilution 333,Pretreat and add 1 uM; assay type: functional, Homo sapiens
# CEM-SS [19] = experiment: Concentration of compound required to protect 50% of CEM-SS cells against retroviral cytopathic effects of HIV-RF on 3rd day at dil 1:100; assay type: functional, cell-based; details: Homo sapiens
# CEM-SS [20] = experiment: Concentration of compound required to protect 50% of CEM-SS cells against retroviral cytopathic effects of HIV-RF on 3rd day at dil 1:200; assay type: functional, cell-based; details: Homo sapiens
# CEM-SS [21] = experiment: Concentration of compound required to protect 50% of CEM-SS cells against retroviral cytopathic effects of HIV-RF on 3rd day at dil 1:50; assay type: functional, cell-based; details: Homo sapiens
# CEM-SS [22] = experiment: Concentration of compound required to protect 50% of CEM-SS cells against retroviral cytopathic effects of HIV-RF on 6th day at dil 1:100; assay type: functional, cell-based; details: Homo sapiens
# CEM-SS [23] = experiment: Concentration of compound required to protect 50% of CEM-SS cells against retroviral cytopathic effects of HIV-RF on 6th day at dil 1:200; assay type: functional, cell-based; details: Homo sapiens
# CEM-SS [24] = experiment: Concentration of compound required to protect 50% of CEM-SS cells against retroviral cytopathic effects of HIV-RF on 6th day at dil 1:400; assay type: functional, cell-based; details: Homo sapiens
# CEM-SS [25] = experiment: Concentration of compound required to protect 50% of CEM-SS cells against retroviral cytopathic effects of HIV-RF on 6th day at dil 1:50; assay type: functional, cell-based; details: Homo sapiens
# CEM-SS [26] = experiment: Concentration of compound required to protect 50% of CEM-SS cells against retroviral cytopathic effects of HIV-RF on 9th day at dil 1:200; assay type: functional, cell-based; details: Homo sapiens
# CEM-SS [27] = experiment: Concentration of compound required to protect 50% of CEM-SS cells against retroviral cytopathic effects of HIV-RF on 9th day at dil 1:400; assay type: functional, cell-based; details: Homo sapiens
# CEM-SS [28] = experiment: Concentration of compound required to protect 50% of CEM-SS cells against retroviral cytopathic effects of HIV-RF on 9th day at dil 1:50; assay type: functional, cell-based; details: Homo sapiens
# [29] = Compound was evaluated for the relative inhibition of Viral infection in MAGI cells at concentration 100 mM, using assay 1; assay type: functional, Homo sapiens
# [30] = Compound was evaluated for the relative inhibition of Viral infection in MAGI cells at concentration 10 mM, using assay 1; assay type: functional, Homo sapiens
# [31] = Compound was evaluated for the relative inhibition of Viral infection in MAGI cells at concentration 10mM, using assay 2; assay type: functional, Homo sapiens
# [32] = Compound was evaluated for the relative inhibition of Viral infection in MAGI cells at concentration 10 mM, using assay 3; assay type: functional, Homo sapiens
# [33] = Compound was evaluated for the relative inhibition of Viral infection in MAGI cells at concentration 1 mM, using assay 1; assay type: functional, Homo sapiens
# MT4 [34] = experiment: Concentration of compound required to protect 50% of MT-4 cells against retroviral cytopathic effects of HIV-2 (ROD); assay type: functional, cell-based; details: Homo sapiens
# MT4 [35] = experiment: Concentration of compound required to reduce MT-4 cell viability by 50%; assay type: functional, cell-based; details: Homo sapiens
# CEM-SS [36] = experiment: Concentration of compound required to protect 50% of CEM-SS cells against retroviral cytopathic effects of HIV-RF on 9th day at dil 1:100; assay type: functional, cell-based; details: Homo sapiens
# CEM-SS [37] = experiment: Compound was evaluated for the cytoprotection of CEM-SS cells by XTT cytoprotection assay through the NCI AIDS Screen; assay type: functional, cell-based; details: Homo sapiens
# MT4 [38] = experiment: Concentration of compound required to protect 50% of MT-4 cells against retroviral cytopathic effects of HIV-1 ([…]); assay type: functional, cell-based; details: Homo sapiens
# [39] = Compound was evaluated for the relative Viral infection in MAGI cells at concentration 100 mM, using assay 2
# [40] = Compound was evaluated for the relative inhibition of Viral infection in MAGI cells at concentration 0.1 uM, using assay 3
# CEM-SS [41] = experiment: Compound was evaluated for the effect of Order of Addition on Cytoprotection against HIV1-RF at dilution 333, Pretreat with 100 uM
# CEM-SS [42] = experiment: Compound was evaluated for the effect of Order of Addition on Cytoprotection against HIV-1RF at dilution 100, Add at infection; assay type: functional, Homo sapiens
# CEM-SS [43] = experiment: Compound was evaluated for the effect of Order of Addition on Cytoprotection against HIV-1RF at dilution 100, Pretreat with 100 uM; assay type: functional, Homo sapiens
# CEM-SS [44] = experiment: Compound was evaluated for the effect of Order of Addition on Cytoprotection against HIV-1RF at dilution 1000, Add at infection; assay type: functional, Homo sapiens
# CEM-SS [45] = experiment: Compound was evaluated for the effect of Order of Addition on Cytoprotection against HIV-1RF at dilution 1000, Pretreat with 100 uM; assay type: functional, Homo sapiens
# CEM-SS [46] = experiment: Compound was evaluated for the effect of Order of Addition on Cytoprotection against HIV-1RF at dilution 333, Add at infection; assay type: functional, Homo sapiens
# CEM-SS [47] = experiment: Compound was evaluated for the effect of Order of Addition on Cytoprotection against HIV-1RF at dilution 333, Pretreat with 100 uM; assay type: functional, Homo sapiens
# MT4 [48] = experiment: Concentration of compound required to protect 50% of MT-4 cells against retroviral cytopathic effects by HIV-1 ([…]); assay type: functional, cell-based; details: Homo sapiens
# CEM-SS [49] = experiment: Compound was evaluated for the cytoprotection by XTT cytoprotection assay through the NCI AIDS Screen; assay type: functional, cell-based; details: Homo sapiens
# [50] = Compound was evaluated for the relative inhibition of Viral infection in MAGI cells at concentration 0.1 mM, using assay 3; assay type: functional, Homo sapiens
# MT4 [51] = experiment: Concentration of compound required to protect 50% of MT-4 cells against retroviral cytopathic effects by HIV-2 (ROD); assay type: functional, cell-based; details: Homo sapiens
# T1 sequence (Q7ZJM1 whole entry): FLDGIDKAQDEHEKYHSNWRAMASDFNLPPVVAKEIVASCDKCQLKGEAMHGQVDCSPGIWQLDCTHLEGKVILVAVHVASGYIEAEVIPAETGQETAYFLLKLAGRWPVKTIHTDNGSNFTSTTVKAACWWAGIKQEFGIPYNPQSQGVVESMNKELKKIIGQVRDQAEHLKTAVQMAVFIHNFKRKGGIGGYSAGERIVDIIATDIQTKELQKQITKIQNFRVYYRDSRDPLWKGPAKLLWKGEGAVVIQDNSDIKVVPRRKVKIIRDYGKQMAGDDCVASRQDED
structure (smiles),measurement,setting,value
CC(=O)Oc1ccc(/C=C/C(=O)NCCOC(=O)/C=C/c2ccc(OC(C)=O)c(OC(C)=O)c2)cc1OC(C)=O,EC50,CEM-SS [1],> 15.6 µM
same,IC50,CEM-SS [2],15.6 µM
same,IC50,[3],100 µM
same,IC50,[4],> 333 µM
NS(=O)(=O)c1ccc(NC(=O)c2ccccc2SSc2ccccc2C(=O)Nc2ccc(S(N)(=O)=O)cc2)cc1,Control,CEM-SS [5],31%
same,Control,CEM-SS [6],6%
same,Control,CEM-SS [7],4%
CC(=O)Oc1ccc(/C=C/C(=O)O[C@H](C(=O)O)[C@H](OC(=O)/C=C/c2ccc(OC(C)=O)c(OC(C)=O)c2)C(=O)O)cc1OC(C)=O,Control,CEM-SS [8],141%
same,Control,CEM-SS [9],100%
same,Control,CEM-SS [10],149%
same,Control,CEM-SS [11],120%
same,Control,CEM-SS [12],60%
same,Control,CEM-SS [13],17%
same,Control,CEM-SS [14],38%
same,Control,CEM-SS [15],51%
same,Control,CEM-SS [16],81%
same,Control,CEM-SS [17],39%
same,Control,CEM-SS [18],57%
same,EC50,CEM-SS [19],> 50 µM
same,EC50,CEM-SS [20],> 50 µM
same,EC50,CEM-SS [21],> 50 µM
same,EC50,CEM-SS [22],> 50 µM
same,EC50,CEM-SS [23],22.6 µM
same,EC50,CEM-SS [24],19.6 µM
same,EC50,CEM-SS [25],> 50 µM
same,EC50,CEM-SS [26],> 50 µM
same,EC50,CEM-SS [27],29.4 µM
same,EC50,CEM-SS [28],> 50 µM
same,relative infection,[29],6%
same,relative infection,[30],88%
same,relative infection,[31],76%
same,relative infection,[32],55%
same,relative infection,[33],83%
same,EC50,MT4 [34],5.1 µM
same,IC50,MT4 [35],60 µM
same,EC50,CEM-SS [36],> 50 µM
same,EC50,CEM-SS [37],21 µM
same,IC50,CEM-SS [37],23 µM
same,EC50,MT4 [38],3.9 µM
same,IC50,[3],4.6 µM
same,IC50,[4],33.3 µM
same,relative infection,[39],5%
same,relative infection,[40],91%
same,Control,CEM-SS [41],163%
Cc1cn([C@H]2C[C@H](N=[N+]=[N-])[C@@H](CO)O2)c(=O)[nH]c1=O [ZIDOVUDINE],Control,CEM-SS [42],35%
same,Control,CEM-SS [43],114%
same,Control,CEM-SS [44],5%
same,Control,CEM-SS [45],121%
same,Control,CEM-SS [46],3%
same,Control,CEM-SS [47],119%
same,EC50,MT4 [48],0.005 µM
same,IC50,MT4 [35],100 µM
CC(=O)Oc1ccc(/C=C/C(=O)O[C@@H](C(=O)O)[C@@H](OC(=O)/C=C/c2ccc(OC(C)=O)c(OC(C)=O)c2)C(=O)O)cc1OC(C)=O,EC50,CEM-SS [49],16 µM
same,relative infection,[50],85%
same,relative infection,[29],4%
same,relative infection,[30],73%
same,relative infection,[31],50%
same,relative infection,[32],42%
same,relative infection,[33],48%
same,EC50,MT4 [48],4.1 µM
same,EC50,MT4 [51],10.1 µM
same,IC50,MT4 [35],47.1 µM
same,IC50,CEM-SS [37],50 µM
same,IC50,[3],6.2 µM
same,IC50,[4],9.8 µM
same,relative infection,[39],2%
